Reference: patent US20240293566A1, “ANTI-EGFRvIII ANTIBODY DRUG CONJUGATES AND USES THEREOF” (Regeneron Pharmaceuticals, Inc., priority 2021, published 2024)

Assays:
U251 MG/hEGFRvIII cells = assay: In vitro cytotoxicity (nuclear counts after 6-day treatment), mono-culture; format: cell-based, human
Text: (§1) To determine the relative cell-killing potency of anti-EGFRvIII antibody drug conjugates of the invention, cell-killing assays were run on a cell line expressing human EGFRvIII. To develop the cell line, Lipofectamine LTX with Plus Reagent was used to generate U251 cells (Sigma, #9063001) expressing human EGFRvIII (hEGFRvIII; amino acids 1 through 380 of accession number NP_005219.2 with a deletion of amino acids 30 through 297 and creation of a junctional glycine residue, i.e. SEQ ID NO: 25) here in referred to as U251 MG/hEGFRvIII. The U251 lines were maintained in complete growth media (MEM Earle's Salts+10% FBS+1% L-glutamine/penicillin/streptomycin+1% non-essential amino acids+sodium pyruvate).
(§2) To measure the in vitro cytotoxicity of anti-EGFRvIII antibody drug conjugates, nuclear counts after a 6-day treatment with the antibody drug conjugates were assessed. […] Nuclear counts were determined via Harmony image analysis software (PerkinELmer), and cell viability was expressed as a percentage of the untreated (100% viable) cells. IC50 values were determined using a four-parameter logistic equation over a 10-point dose response curve (GraphPad Prism). The maximum % kill was also determined for each test article as follows: 100-minimum percent viability.

U251MG in coculture = assay: Bystander killing assay, 1:1 coculture, far red negative population; format: cell-based; settings: 6 days
Method: Bystander killing by an ADC can take place when the cytotoxic payload is released from the target cells and is then taken up by surrounding antigen-negative (bystander) cells. […] A 1:1 coculture of 1500 cells/well of far red labeled U251 MG/hEGFRvIII cells and 1500 cells/well unlabeled U251 MG cells were incubated with either ADC or free payload M31 at a range of concentrations (100 nM to 1.5 pM) for 6 days. Cells were subsequently treated with 3 ug/mL of Hoechst 33342 nuclear stain (ThermoFisher, #H3570) while being fixed with 4% formaldehyde (ThermoFisher, #28908). Images were acquired on the Opera Phenix Microscope (PerkinELmer). All cells were identified by the Hoechst-labeled nuclei and cell counts were separated into far red positive U251 MG/hEGFRvIII cells (U251 in coculture) and far red negative parental U251 MG cell populations via Harmony image analysis software (PerkinELmer). Cell viability was determined separately for each cell population and expressed as a percentage of the untreated (100% viable) cells.

[1] = system: U251MG/hEGFRvIII in coculture; assay: Bystander killing assay, 1:1 coculture, far red positive population; format: cell-based, human; settings: 6 days
Method: Bystander killing by an ADC can take place when the cytotoxic payload is released from the target cells and is then taken up by surrounding antigen-negative (bystander) cells. […] Cells were subsequently treated with 3 ug/mL of Hoechst 33342 nuclear stain (ThermoFisher, #H3570) while being fixed with 4% formaldehyde (ThermoFisher, #28908). Images were acquired on the Opera Phenix Microscope (PerkinELmer). All cells were identified by the Hoechst-labeled nuclei and cell counts were separated into far red positive U251 MG/hEGFRvIII cells (U251 in coculture) and far red negative parental U251 MG cell populations via Harmony image analysis software (PerkinELmer). Cell viability was determined separately for each cell population and expressed as a percentage of the untreated (100% viable) cells.

U251 MG parental cells = assay: In vitro cytotoxicity (nuclear counts after 6-day treatment), mono-culture; format: cell-based
Text: as §1, §2

U251/EGFRvIII xenografts = assay: Subcutaneous U251/EGFRvIII xenograft, comparison with COMP-MMAF (Example 11); format: in vivo, SCID mice; settings: for Tumor growth (mm^3) from start of treatment (mean ± SD) / Tumor volume (mm^3) at termination of vehicle group (mean ± SD): Day 36 post-treatment
Method: For the initial xenograft study, U251/EGFRvIII tumors were established by the subcutaneous implantation of 10×10^6 cells mixed 1:1 with Matrigel on the right flank of male SCID mice. Tumors were grown to ˜175 mm^3 before treatment initiation, approximately 30 days post-implantation. Mice were randomized into groups of 8 and treated with a single dose of test or control ADCs. Tumor growth was monitored for 71 days post-treatment.

[2] = system: Orthotopically placed GBM59 GBM PDX tumors; assay: Intracranial orthotopic GBM59 PDX survival, comparison with COMP-MMAF (Example 11); format: in vivo, mice
Method: Intracranial injection was performed at 1 mm anterior and 2 mm lateral to the bregma at a depth of 3 mm. All orthotopic GBM PDX studies were conducted by Translational Drug Development Inc. Orthotopic GBM59 PDX were allowed to establish for 25 days before mice were randomized into groups of 8 and treated with a single dose of test or control ADCs. Mice were monitored for 94 days for signs of peri-morbidity and euthanized prior to reaching a moribund state.

Compound: COc1cc2c(cc1OCCCCCOc1cc3c(cc1OC)C(=O)N1C=C(C)C[C@H]1C=N3)N=C[C@@H]1CC(C)=CN1C2=O [SG3199]
- IC50 (U251 MG/hEGFRvIII cells; Homo sapiens, U-251, 144 h): 10 pM
- % Kill (maximum) (U251 MG/hEGFRvIII cells; U251MG/hEGFRvIII mono-culture, 6 days): 92%
- % Kill (maximum) (U251MG in coculture): 94%
- IC50 (U251MG in coculture; Homo sapiens, U-251, 144 h): 7 pM
- % Kill (maximum) [1]: 91%
- IC50 ([1]; Homo sapiens, U-251, 144 h): 10 pM
- IC50 (U251 MG parental cells; Homo sapiens, U-251, 144 h): 2 pM
- % Kill (maximum) (U251 MG parental cells; U251MG mono-culture, 6 days): 93%

Compound: COMP-MMAF: ABT-414 (hu806) antibody conjugated to monomethyl auristatin F (MMAF) via non-cleavable linker
- Anti-tumor activity (U251/EGFRvIII xenografts; COMP-MMAF 2.5 mg/kg): Activity against tumors was seen
- Anti-tumor activity (U251/EGFRvIII xenografts; COMP-MMAF 5 mg/kg, 71 days post-dosing): sustained activity similar to that resulting from treatment with REGN3124-tesirine
- Tumor growth (mm^3) from start of treatment (mean ± SD) (U251/EGFRvIII xenografts; ADC dose 1 mg/kg): 423 ± 324 mm^3
- Tumor volume (mm^3) at termination of vehicle group (mean ± SD) (U251/EGFRvIII xenografts; ADC dose 1 mg/kg): 595 ± 325 mm^3
- Tumor growth (mm^3) from start of treatment (mean ± SD) (U251/EGFRvIII xenografts; ADC dose 2.5 mg/kg): 6 ± 36 mm^3
- Tumor volume (mm^3) at termination of vehicle group (mean ± SD) (U251/EGFRvIII xenografts; ADC dose 2.5 mg/kg): 183 ± 51 mm^3
- Tumor growth (mm^3) from start of treatment (mean ± SD) (U251/EGFRvIII xenografts; ADC dose 5 mg/kg): −36 ± 22 mm^3
- Tumor volume (mm^3) at termination of vehicle group (mean ± SD) (U251/EGFRvIII xenografts; ADC dose 5 mg/kg): 136 ± 16 mm^3
- Anti-tumor activity (U251/EGFRvIII xenografts; REGN3124-tesirine 0.53 mg/kg ADC (7 ug/kg PBD payload), COMP-MMAF 1 mg/kg, isotype controls all dose levels): Sustained regression was not observed
- N = 8 survival at Day 94 ([2]; ADC dose 1 (mg/kg)): 0/8
- median survival ([2]; ADC dose 1 (mg/kg)): 13.5 days
- N = 8 survival at Day 94 ([2]; ADC dose 5 (mg/kg), MMAF ADCs): 0/8
- median survival ([2]; ADC dose 5 (mg/kg), MMAF ADCs): 23.5 days
- Effect on survival relative to the MMAF control ([2]; COMP-MMAF 5 mg/kg): some increase in survival
- Time within which all mice succumbed to tumor burden ([2]; COMP-MMAF 5 mg/kg): ≤ 35 days of treatment
- Effect on survival ([2]; REGN3124-tesirine DAR 1.9, 7 ug/kg payload, COMP-MMAF 1 mg/kg, controls): did not induce a significant increase in survival
